Assay results reported in US8173651B2, “Pyridine compounds” (Synta Pharmaceuticals Corporation, priority 2003, dated 2012).

How the values were obtained:
[1] = tested on: IL-12 production in human PBMC or THP-1 cells; assay: Human in vitro assay: inhibition of IL-12 production (ELISA) in stimulated PBMC or THP-1 cells; type: cell-based; conditions: IFNγ plus LPS or SAC stimulation
Excerpt: The biological activities of a heterocyclic compound can be evaluated by a number of cell-based assays. One of such assays can be conducted using cells from human peripheral blood mononuclear cells (PBMC) or human monocytic cell line (THP-1). The cells are stimulated with a combination of human interferon-γ (IFNγ) and lipopolysaccharide or a combination of IFNγ and Staphylococcus aureus Cowan I in the presence of a test compound. The level of inhibition of IL-12 production can be measured by determining the amount of p70 by using a sandwich ELISA assay with anti-human IL-12 antibodies. IC50 of the test compound can then be determined. Specifically, PBMC or THP-1 cells are incubated with the test compound. Cell viability was assessed using the bioreduction of MTS [3-(4,5-dimethylthiazol-2-yl)-5-(3-carboxymethoxyphenyl)-2-(4-sulfophenyl)-2H-tetrazolium] (Promega, Madison, Wis.).
Reagents. Staphylococcus aureus Cowan I (SAC) is obtained from Calbiochem (La Jolla, Calif.), and lipopolysaccharide (LPS, Serratia marscencens) is obtained from Sigma (St. Louis, Mo.). Human and mouse recombinant IFNγ are purchased from Boehringer Mannheim (Mannheim, Germany) and Pharmingen (San Diego, Calif.), respectively.
Human In Vitro Assay. Human PBMC were isolated by centrifugation using Ficoll-Paque (Pharmacia Biotech, Uppsala, Sweden) and prepared in RPMI medium supplemented with 10% fetal calf serum (FCS), 100 U/mL penicillin, and 100 μg/mL streptomycin. PBMC were plated in wells of a 96-well plate at a concentration of 5×10^5 cells/well, and primed by adding IFNγ (30 U/mL) for 22 h and stimulated by adding LPS (1 vg/mL), or by adding IFNγ (100 U/mL) and then stimulated by adding SAC (0.01%). A test pyridine compound was dissolved in DMSO, and added to wells of the 96-well plate. The final DMSO concentration was adjusted to 0.25% in all cultures, including the compound-free control. Human THP-1 cells were plated in wells, primed by adding IFNγ (100 U/mL) for 22 h and stimulated by adding SAC (0.025%) in the presence of different concentrations of the pyridine compound. Cell-free supernatants were taken 18 h later for measurement of cytokines. Cell viability was assessed using the bioreduction of MTS. Cell survival was estimated by determining the ratio of the absorbance in compound-treated groups versus compound-free control.
The supernatant was assayed for the amount of IL-12p40, IL-12p70, or IL-10 by using a sandwich ELISA with anti-human antibodies, i.e., a Human IL-12 p40 ELISA kit from R&D Systems (Berkeley, Calif.), and a Human IL-12 p70 or IL-10 ELISA kit from Endogen (Cambridge, Mass.). Assays were based on the manufacturer's instructions.
The biological activities of pyridine compounds were tested on human PBMC or THP-1 cells.

[2] = tested on: adjuvant arthritis (AA) in female Lewis rats; assay: In vivo adjuvant arthritis assay in rats; set-up: species or system rat; conditions: oral, once a day for 7 days (day 7-14); dose-dependent; experiments repeated four times; FIG. 1
Protocol: Treatment of adjuvant arthritis in rats: Adjuvant arthritis (AA) was induced in female Lewis rats by the intracutaneous injection (base of the tail) of 0.1 mL of a 10 mg/mL bacterial suspension made from ground, heat-killed Mycobacterium tuberculosis H37Ra suspended in incomplete Freund's adjuvant. Rats were given a test compound orally once a day for 7 days (day 7-14), starting day 7 after mycobacterium induction. The development of polyarthritis was monitored daily by macroscopic inspection and assignment of an arthritis index to each animal, during the critical period (days 10 to 25 post-immunization).
The intensity of polyarthritis was scored according to the following scheme: (a) Grade each paw from 0 to 3 based on erythema, swelling, and deformity of the joints: 0 for no erythema or swelling; 0.5 if swelling is detectable in at least one joint; 1 for mild swelling and erythema; 2 for swelling and erythema of both tarsus and carpus; and 3 for ankylosis and bony deformity.
Maximum score for all 4 paws was thus 12. (b) Grade for other parts of the body: for each ear, 0.5 for redness and another 0.5 if knots are present; 1 for connective tissue swelling (saddle nose); and 1 for the presence of knots or kinks in the tail. The highest possible arthritic index was 16.
Experiments with the AA model were repeated four times.

Structure (SMILES): COc1ccc(CCOc2cc(NN=Cc3c[nH]c4ccccc34)cc(N3CCOCC3)n2)cc1OC [Compound 1, N-{2-[2-(3,4-Dimethoxy-phenyl)-ethoxy]-6-morpholin-4-yl-pyridin-4-yl}-N′-(1H-indol-3-ylmethylene)-hydrazine]
- IC50 [1]: 10 nM

Structure (SMILES): COc1ccc(CCOc2cc(N3CCOCC3)cc(NN=Cc3c[nH]c4ccccc34)n2)cc1OC [Compound 2, N-{6-[2-(3,4-Dimethoxy-phenyl)-ethoxy]-4-morpholin-4-yl-pyridin-2-yl}-N′-(1H-indol-3-ylmethylene)-hydrazine]
- IC50 [1]: 5 nM

Structure (SMILES): COc1ccc(CCOc2cc(NN=Cc3c[nH]c4ccccc34)nc(N3CCOCC3)c2)cc1OC [Compound 3, N-{4-[2-(3,4-Dimethoxy-phenyl)-ethoxy]-6-morpholin-4-yl-pyridin-2-yl}-N′-(1H-indol-3-ylmethylene)-hydrazine]
- IC50 [1]: 800 nM

Structure (SMILES): COc1ccc(CCOc2cc(N3CCOCC3)cc(Nc3ccc4[nH]c(C)c(C)c4c3)n2)cc1OC [Compound 4, {6-[2-(3,4-Dimethoxy-phenyl)-ethoxy]-4-morpholin-4-yl-pyridin-2-yl}-(2,3-dimethyl-1H-indol-5-yl)-amine]
- IC50 [1]: 197 nM

Structure (SMILES): COc1ccc(CCOc2cc(NN=Cc3cccc(C)c3)nc(N3CCOCC3)c2)cc1OC [Compound 5, N-{4-[2-(3,4-Dimethoxy-phenyl)-ethoxy]-6-morpholin-4-yl-pyridin-2-yl}-N′-(3-methyl-benzylidene)-hydrazine]
- IC50 [1]: 2000 nM

Structure (SMILES): COc1ccc(CCOc2cc(NN=Cc3cccc(C)c3)cc(N3CCOCC3)n2)cc1OC [Compound 6, N-{2-[2-(3,4-Dimethoxy-phenyl)-ethoxy]-6-morpholin-4-yl-pyridin-4-yl}-N′-(3-methyl-benzylidene)-hydrazine]
- IC50 [1]: 5 nM

Structure (SMILES): COc1ccc(CCOc2cc(N3CCOCC3)cc(NN=Cc3cccc(C)c3)n2)cc1OC [Compound 7, N-{6-[2-(3,4-Dimethoxy-phenyl)-ethoxy]-4-morpholin-4-yl-pyridin-2-yl}-N′-(3-methyl-benzylidene)-hydrazine]
- IC50 [1]: 14.1 nM

Structure (SMILES): COc1ccc(CCOc2cc(Nc3ccc4[nH]c(C)c(C)c4c3)cc(N3CCOCC3)n2)cc1OC [Compound 8, {2-[2-(3,4-Dimethoxy-phenyl)-ethoxy]-6-morpholin-4-yl-pyridin-4-yl}-(2,3-dimethyl-1H-indol-5-yl)-amine]
- IC50 [1]: 28 nM

Structure (SMILES): COc1ccc(CCOc2cc(Nc3ccc4[nH]c(C)c(C)c4c3)nc(N3CCOCC3)c2)cc1OC [Compound 9, {4-[2-(3,4-Dimethoxy-phenyl)-ethoxy]-6-morpholin-4-yl-pyridin-2-yl}-(2,3-dimethyl-1H-indol-5-yl)-amine]
- IC50 [1]: 350 nM

Structure (SMILES): COc1ccc(CCOc2cc(Nc3cccc(C)c3)nc(N3CCOCC3)c2)cc1OC [Compound 10, {4-[2-(3,4-Dimethoxy-phenyl)-ethoxy]-6-morpholin-4-yl-pyridin-2-yl}-m-tolyl-amine]
- IC50 [1]: 5000 nM

Structure (SMILES): Cc1cccc(C=NNc2cc(OCCN3CCOC3=O)cc(N3CCOCC3)n2)c1 [Compound 11, 3-(2-{2-[N′-(3-methyl-benzylidene)-hydrazino]-6-morpholin-4-yl-pyridin-4-yloxy}-ethyl)oxazolidin-2-one]
- IC50 [1]: 927 nM

Structure (SMILES): Cc1cccc(C=NNc2nc(OCCN3CCOCC3)c(F)c(N3CCOCC3)c2F)c1 [Compound 12, N-[3,5-Difluoro-4-morpholin-4-yl-6-(2-morpholin-4-yl-ethoxy)-pyridin-2-yl]-N′-(3-methyl-benzylidene)-hydrazine]
- IC50 [1]: > 1000 nM

Structure (SMILES): Cc1cccc(/C=N/Nc2c(F)c(OCCN3CCOCC3)nc(N3CCOCC3)c2F)c1 [Compound 13, N-[3,5-Difluoro-2-morpholin-4-yl-6-(2-morpholin-4-yl-ethoxy)-pyridin-4-yl]-N′-(3-methyl-benzylidene)-hydrazine]
- IC50 [1]: 148 nM

Structure (SMILES): Cc1cccc(/C=N/Nc2cc(N3CCOCC3)cc(OCCN3CCOCC3)n2)c1 [Compound 14, N-(3-Methyl-benzylidene)-N′-[4-morpholin-4-yl-6-(2-morpholin-4-yl-ethoxy)-pyridin-2-yl]-hydrazine]
- IC50 [1]: 25 nM
- arthritic score [2]: reproducibly reduced the arthritic score
- development of polyarthritis [2]: delayed the development of polyarthritis

Structure (SMILES): C(=N\Nc1cc(N2CCOCC2)cc(OCCN2CCOCC2)n1)/c1c[nH]c2ccccc12 [Compound 16, N-(1H-Indol-3-ylmethylene)-N′-[4-morpholin-4-yl-6-(2-morpholin-4-yl-ethoxy)-pyridin-2-yl]-hydrazine]
- IC50 [1]: 36.6 nM

Structure (SMILES): Cc1cccc(/C=N/N(C)c2cc(N3CCOCC3)cc(OCCN3CCOCC3)n2)c1 [Compound 17, N-Methyl-N′-(3-methyl-benzylidene)-N-[4-morpholin-4-yl-6-(2-morpholin-4-yl-ethoxy)-pyridin-2-yl]-hydrazine]
- IC50 [1]: 14.2 nM

Structure (SMILES): Cc1cccc(/C=N/Nc2cc(OCCN3CCOC3=O)cc(N3CCOCC3)n2)c1 [Compound 18, 3-(2-{2-[N′-(3-Methyl-benzylidene)-hydrazino]-6-morpholin-4-yl-pyridin-4-yloxy}-ethyl)-oxazolidin-2-one]
- IC50 [1]: 927 nM

Structure (SMILES): C(=N\Nc1cc(N2CCOCC2)cc(OCCN2CCOCC2)n1)/c1ccoc1 [Compound 19, N-Furan-3-ylmethylene-N′-[4-morpholin-4-yl-6-(2-morpholin-4-yl-ethoxy)-pyridin-2-yl]-hydrazine]
- IC50 [1]: 5000 nM

Structure (SMILES): Cc1ccc(N)c(/C=N/Nc2cc(N3CCOCC3)cc(OCCN3CCOCC3)n2)c1 [Compound 20, 4-Methyl-2-{[4-morpholin-4-yl-6-(2-morpholin-4-yl-ethoxy)-pyridin-2-yl]-hydrazonomethyl}-phenylamine]
- IC50 [1]: 11.4 nM

Structure (SMILES): Cc1cccc(/C=N/Nc2cc(N3CCOCC3)cc(OCCN3CCOCC3)[n+]2[O-])c1 [Compound 21, N-(3-Methyl-benzylidene)-N′-[4-morpholin-4-yl-6-(2-morpholin-4-yl-ethoxy)-1-oxy-pyridin-2-yl]-hydrazine]
- IC50 [1]: 86 nM
